Test results from patent US9636342B2, “Method for treating prostate cancer” (UNIVERSITY OF SOUTH CAROLINA, priority 2012, dated 2017).
pKd: −log10 of the molar value. Values belong to the compound of their own block, whether it stands above or below them.

Legend:
LNCaP-LN3 cells = test: Growth of androgen-independent LNCaP-LN3 cells in androgen-depleted CSS media (cell count); assay type: cell-based; details: for growth (total cell number): LNCaP-LN3 cells, 5 μM Senexin B or 10 μM MDV3100 (FIG. 6B)
Text: (§1) In most of CRPC patients, prostate cancer tumor cells restore their AR activities despite low-androgen environment or presence of AR antagonists.

CWR22rv1 cells = test: Growth of androgen-independent CWR22rv1 cells in androgen-depleted CSS media (cell count); assay type: cell-based; details: for growth (total cell number): 5 μM Senexin B or 10 μM MDV3100 (FIG. 6B)
Text: as §1

[1] = system: AR-dependent genes in LNCaP-LN3 cells; test: qPCR expression of AR-dependent genes KLK3 (PSA) and KLK2 in LNCaP-LN3 cells without androgen; assay type: cell-based; details: for expression of KLK2 / expression of PSA: LNCaP-LN3 cells, absence of androgen, 5 μM Senexin B or 10 μM MDV3100 (FIG. 6D)
Text: (§2) Endogenous AR activities in these cells were estimated by qPCR analysis of mRNA expression of AR-dependent genes, KLK3 (PSA) and KLK2.

[2] = system: AR-dependent genes in CWR22rv1 cells; test: qPCR expression of AR-dependent genes KLK3 (PSA) and KLK2 in CWR22rv1 cells without androgen; assay type: cell-based; details: for expression of KLK2 / expression of PSA: absence of androgen, 5 μM Senexin B or 10 μM MDV3100 (FIG. 6D)
Text: as §2

[3] = system: androgen-responsive genes in LNCaP cells; test: qPCR expression of androgen-responsive genes in LNCaP cells; assay type: cell-based
AR = test: Promoter activity assay (firefly luciferase reporter) in HEK293 cells overexpressing full-length wild-type AR; assay type: cell-based; details: for activation of androgen-responsive construct (firefly luciferase reporter under PSA gene promoter): HEK-293 cells overexpressing AR, in the presence of R1881 (FIG. 4A, FIG. 5)
CDK8 = CDK8 (Homo sapiens, UniProt P49336); test: Senexin B inhibition of CDK8 kinase activity (Kd); assay type: binding
Chain of CDK8 (P49336 whole entry): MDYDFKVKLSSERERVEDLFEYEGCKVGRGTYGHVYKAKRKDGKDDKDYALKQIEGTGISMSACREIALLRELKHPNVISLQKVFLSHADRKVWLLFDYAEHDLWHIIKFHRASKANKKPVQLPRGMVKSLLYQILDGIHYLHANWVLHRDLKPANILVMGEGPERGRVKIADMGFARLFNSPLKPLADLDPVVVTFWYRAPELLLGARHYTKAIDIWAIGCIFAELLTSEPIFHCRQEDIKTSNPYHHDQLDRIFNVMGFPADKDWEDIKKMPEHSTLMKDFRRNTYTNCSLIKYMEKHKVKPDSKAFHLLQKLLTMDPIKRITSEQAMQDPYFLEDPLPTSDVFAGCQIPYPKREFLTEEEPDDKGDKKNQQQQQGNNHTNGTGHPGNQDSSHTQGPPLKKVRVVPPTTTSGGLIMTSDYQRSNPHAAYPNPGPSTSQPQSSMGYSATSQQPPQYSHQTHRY
Text: The invention provides a method for treating prostate cancer in a subject comprising administering to the subject an effective amount of a selective inhibitor of one or more of CDK8 and CDK19. […] For purposes of the invention, “specific inhibitors of CDK8/19” are small molecule compounds that inhibit CDK8 or CDK8 and CDK19 to a greater extent than they inhibit certain other CDKs. In some embodiments, such compounds further inhibit CDK8 to a greater extent than CDK9. In preferred embodiments, such greater extent is at least 2-fold more than CDK9. Compounds that are useful in the invention are described in co-pending US Patent Publications 20120071477 and 20120071477 and PCT Publication WO2013/116786. Extent of inhibition is measured by the assays taught in co-pending PCT Publication WO2013/116786.
(§3) These small molecules selectively bind to the ATP pockets of CDK8/19 to inhibit their kinase activity.

Water solubility = assay type: physicochemical
Text: as §3

C4-2 cells = test: Growth of androgen-independent C4-2 cells in androgen-depleted CSS media (cell count); assay type: cell-based; details: different concentrations of Senexin B (FIG. 6A)
Text: as §1

PC-3 cells = test: Growth of PC-3 cells in androgen-depleted CSS media (cell count); assay type: cell-based; details: different concentrations of Senexin B, p<0.05 vs DMSO (FIG. 7)
Text: PC-3 cell growth was previously shown to be inhibited by the inhibition of transcription factor NFκB^43-45, and CDK8/19 inhibition was discovered by Senex to decrease the induction of NFκB transcriptional activity (PCT Publication WO2013/040153).

[4] = system: AR-dependent genes in C4-2 cells; test: qPCR expression of AR-dependent genes KLK3 (PSA) and KLK2 in C4-2 cells without androgen; assay type: cell-based; details: CSS media 2d, treated 24 hours (FIG. 6C)
Text: as §2

[5] = system: LN-CaP LN3 (LN3) prostate cancer cells xenograft; test: LNCaP-LN3 xenograft growth in nude mice; assay type: in vivo, nude male mice; details: 40 mg/kg i.p. daily
Procedure: 6-8 week-old nude male mice (Jackson Laboratory) were subcutaneously injected with 2 million LN-CaP LN3 (LN3) prostate cancer cells in the right flank, with Matrigel. Visible tumors formed ˜14 days after injection. […] The tumor size was measured by caliper 3 times per week and calculated by the equation length*width*width*0.5. […] At the end of the experiment, mice from each group were sacrificed to determine final tumor weight.

Structure (SMILES): CNC(=O)c1ccc(N2C(=S)N(c3ccc(C#N)c(C(F)(F)F)c3)C(=O)C2(C)C)cc1F [MDV3100, enzalutamide, reference compound]
growth (total cell number) (LNCaP-LN3 cells): weakly inhibited | growth (total cell number) (CWR22rv1 cells): does not inhibit | expression of KLK2 [1]: does not down-regulate | expression of PSA [1]: weakly down-regulates | expression of KLK2 [2]: does not down-regulate | expression of PSA [2]: does not down-regulate

Structure (SMILES): N#Cc1ccc2ncnc(NCCc3ccccc3)c2c1 [Senexin A]
androgen-stimulated transcriptional activation of androgen-responsive genes PSA (KLK3), KLK2, TMPRSS2, PGC ([3]; LNCaP cells, Senexin A 5 μM, androgen-supplemented (500 pM R1881) or androgen-deprived conditions (FIG. 2A)): significantly inhibited | activation of androgen-responsive construct (firefly luciferase reporter under PGC gene promoter) (AR; HEK293 cells overexpressing AR, Senexin A 1 μM and 5 μM, in the presence of R1881 (FIG. 4B)): significantly inhibits | activation of androgen-responsive construct (firefly luciferase reporter under PSA gene promoter) (AR): significantly inhibited

pKd (CDK8): 6.85 | water solubility (Water solubility): ≤ 50 mM
Structure (SMILES): CN1CCN(C(=O)c2ccc3cc(CCNc4ncnc5ccc(C#N)cc45)ccc3c2)CC1 [Senexin B]
effect on the inhibition of androgen-inhibited genes AR, OPRK1, STXBP6 by androgen ([3]; LNCaP cells, Senexin B 1 μM and 4 μM (FIG. 2C)): did not interfere with the inhibition | androgen-stimulated transcriptional activation of androgen-responsive genes PSA (KLK3), KLK2, TMPRSS2, SGK1, KLF5, PGC ([3]; LNCaP cells, Senexin B 1 μM and 4 μM, androgen-supplemented (500 pM R1881, 24 hr after 5-day deprivation) (FIG. 2B)): significantly inhibited | androgen-stimulated transcription of androgen-responsive genes after pretreatment ([3]; androgen-deprived LNCaP cells, Senexin B 1 μM and 4 μM added 1 hr before 500 pM R1881, p<0.05 vs DMSO (FIG. 3)): significantly inhibited | activation of androgen-responsive construct (firefly luciferase reporter under PSA gene promoter) (AR): significantly inhibited | androgen-independent growth (total cell number) (LNCaP-LN3 cells; LN3 cells, different concentrations of Senexin B (FIG. 6A)): strongly inhibited | growth (total cell number) (LNCaP-LN3 cells): strongly inhibited | androgen-independent growth (total cell number) (C4-2 cells): strongly inhibited | growth (total cell number) (CWR22rv1 cells): significantly inhibited | androgen-independent growth (total cell number) (CWR22rv1 cells; different concentrations of Senexin B (FIG. 6A)): strongly inhibited | growth of PC-3 cells (total cell number) (PC-3 cells): inhibited | expression of PSA and KLK2 ([1]; LN3 cells, CSS media 2d, treated 24 hours (FIG. 6C)): down-regulated | expression of KLK2 [1]: strongly down-regulates | expression of PSA [1]: strongly down-regulates | expression of PSA and KLK2 [4]: down-regulated | expression of PSA and KLK2 ([2]; CSS media 2d, treated 24 hours (FIG. 6C)): down-regulated | expression of KLK2 [2]: strongly down-regulates | expression of PSA [2]: strongly down-regulates | appearance (health) of treated mice ([5]; 5 days per week for 2 weeks): looked as healthy as the mice in the vehicle control group | body weight of the hosts ([5]; 5 days per week for 2 weeks (FIG. 9)): no effects | tumor growth (tumor volume) ([5]; 5 days per week for 2 weeks, relative to vehicle control (FIG. 8)): dramatically inhibits | final tumor weight ([5]; 5 days per week for 2 weeks, vs control group (FIG. 10)): significantly lower
